Experimental findings from US11267825B2 (AICURIS GMBH & CO. KG, priority 2017, dated 2022) are described below.

In one test the test system is HBV. Nature of the test: Determination of HBV DNA from the supernatants of HepAD38 cells (anti-HBV activity). Type of test: cell-based, hepatitis B virus. Particulars: Hepatitis B virus, 144 h; HBV DNA in HepAD38 supernatant at day 6; read-out: Cell Activity (EC50). The gist of the method: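 EC50 values were obtained by non-linear regression of HBV DNA copy numbers measured by qPCR against pCH-9/3091 plasmid standards. The DNA came from filtered supernatants collected on day 6. Before that, tetracycline-withdrawn HepAD38 cells had been exposed to serial half-log compound dilutions, with tetracycline-treated cells as the non-producing control.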

A further test addresses HBV core protein (UniProt P03146). Type of test: biochemical. Particulars: read-out: Assembly Activity (IC50); BODIPY-FL labelled core protein, assembly started with NaCl, read after 6 min. An outline of the steps: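 Compounds tested at 8 concentrations in 0.5-log steps from 100, 31.6 or 10 μM against 1.0–2.0 μM BODIPY-FL-labelled Cys150 core dimers (residues 1–149), 50 mM HEPES pH 7.5. NaCl ([…] final) triggered assembly; quenching read at 6 min, 477/525 nm, with 2.5 M and 0 M NaCl as controls; EC50 by nonlinear fit.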

HBV core protein, sequence (P03146 whole entry, looked up, the tested form may be a part): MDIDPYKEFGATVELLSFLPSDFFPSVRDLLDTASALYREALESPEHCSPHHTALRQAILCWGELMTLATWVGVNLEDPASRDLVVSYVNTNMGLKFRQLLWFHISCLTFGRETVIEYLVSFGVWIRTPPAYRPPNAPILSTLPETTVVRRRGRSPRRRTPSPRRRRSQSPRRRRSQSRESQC

By EC50 is commonly meant the concentration giving half of the maximal effect. Usually IC50 stands for the concentration needed to halve the response being measured. In the case of `Nc1nc2c(s1)CN(C(=O)c1cc3c(F)ccc(F)c3[nH]1)CC2` [Example 170, 5-(4,7-difluoro-1H-indole-2-carbonyl)-4H,5H,6H,7H-[1,3]thiazolo[5,4-c]pyridin-2-amine], the 50% effective concentration (EC50) in the test on HBV is under 1 µM. At HBV core protein, the half-inhibitory concentration (IC50) is under 5 µM.
On the same counts, the results for `O=C(c1cc2ccccc2[nH]1)N1CCc2nc(O)sc2C1` [Example 141, 5-(1H-indole-2-carbonyl)-4H,5H,6H,7H-[1,3]thiazolo[5,4-c]pyridin-2-ol] are 1 to 10 µM and under 100 µM.
On the same counts, the results for `CN1CCOC(CNc2nc3c(s2)CN(C(=O)c2cc4ccccc4[nH]2)CC3)C1` (stereo not shown) [Example 23, 5-(1H-indole-2-carbonyl)-N-[(4-methylmorpholin-2-yl)methyl]-4H,5H,6H,7H-[1,3]thiazolo[5,4-c]pyridin-2-amine] are 1 to 10 µM and 5 to 10 µM.
On the same counts, the results for `CC1(Nc2nc3c(s2)CN(C(=O)c2cc4ccccc4[nH]2)CC3)CCOCC1` [Example 69, 5-(1H-indole-2-carbonyl)-N-(4-methyloxan-4-yl)-4H,5H,6H,7H-[1,3]thiazolo[5,4-c]pyridin-2-amine] are under 1 µM and under 5 µM.
Regarding `CCOc1nc2c(s1)CN(C(=O)c1cc3ccccc3[nH]1)CC2` [Example 152, 2-{2-ethoxy-4H,5H,6H,7H-[1,3]thiazolo[5,4-c]pyridine-5-carbonyl}-1H-indole], the EC50 with HBV lay in the range of 1 to 10 µM. In addition, the half-inhibitory concentration (IC50) at HBV core protein is under 100 µM.
With `O=C(c1cc2ccccc2[nH]1)N1CCc2nc(-c3ncccn3)sc2C1` [Example 202, 2-[2-(pyrimidin-2-yl)-4H,5H,6H,7H-[1,3]thiazolo[5,4-c]pyridine-5-carbonyl]-1H-indole], the half-maximal effective concentration (EC50) with HBV lay in the range of 1 to 10 µM. For the same compound, the IC50 on HBV core protein is 5 to 10 µM.
`O=C(c1cc2c(F)ccc(F)c2[nH]1)N1CCc2nc(NCC3CCOC3)sc2C1` (stereo not shown) [Example 122, 5-(4,7-difluoro-1H-indole-2-carbonyl)-N-[(oxolan-3-yl)methyl]-4H,5H,6H,7H-[1,3]thiazolo[5,4-c]pyridin-2-amine]: the half-maximal effective concentration (EC50) in the test on HBV was under 1 µM. Further, the concentration for half-maximal inhibition (IC50) on HBV core protein was under 5 µM.
For `CC(Nc1nc2c(s1)CN(C(=O)c1cc3ccccc3[nH]1)CC2)C1CCOC1` (stereo not shown) [Example 247, 5-(1H-indole-2-carbonyl)-N-[1-(oxolan-3-yl)ethyl]-4H,5H,6H,7H-[1,3]thiazolo[5,4-c]pyridin-2-amine], in the test on HBV, the 50% effective concentration (EC50) is under 1 µM. At HBV core protein, the IC50 is under 5 µM.
On the same counts, the results for `COCCC(=O)Nc1nc2c(s1)CN(C(=O)c1cc3ccccc3[nH]1)CC2` [Example 19, N-[5-(1H-indole-2-carbonyl)-4H,5H,6H,7H-[1,3]thiazolo[5,4-c]pyridin-2-yl]-3-methoxypropanamide] are under 1 µM and under 5 µM.
The matching figures for `O=C(c1cc2ccccc2[nH]1)N1CCc2nc(NCC3CCCCO3)sc2C1` (stereo not shown) [Example 35, 5-(1H-indole-2-carbonyl)-N-[(oxan-2-yl)methyl]-4H,5H,6H,7H-[1,3]thiazolo[5,4-c]pyridin-2-amine]: under 1 µM and 5 to 10 µM.
With `Nc1nc2c(s1)CN(C(=O)c1cc3cccc(O)c3[nH]1)CC2` [Example 98, 2-{2-amino-4H,5H,6H,7H-[1,3]thiazolo[5,4-c]pyridine-5-carbonyl}-1H-indol-7-ol], in the test with HBV, the EC50 was under 100 µM. Further, the 50% inhibitory concentration (IC50) on HBV core protein is under 100 µM.
Consider `Cc1nc2c(s1)CN(C(=O)c1cc3c(Cl)cccc3[nH]1)CC2` [Example 211, 4-chloro-2-{2-methyl-4H,5H,6H,7H-[1,3]thiazolo[5,4-c]pyridine-5-carbonyl}-1H-indole], for which the half-maximal effective concentration (EC50) with HBV is under 1 µM. For the same compound, the IC50 on HBV core protein is under 5 µM.
For `CC1(CNc2nc3c(s2)CN(C(=O)c2cc4ccccc4[nH]2)CC3)CCOC1` (stereo not shown) [Example 49, 5-(1H-indole-2-carbonyl)-N-[(3-methyloxolan-3-yl)methyl]-4H,5H,6H,7H-[1,3]thiazolo[5,4-c]pyridin-2-amine], in the test with HBV, the EC50 was under 1 µM. In addition, the 50% inhibitory concentration (IC50) on HBV core protein was under 5 µM.
On the same counts, the results for `Cc1cccc2[nH]c(C(=O)N3CCc4nc(N)sc4C3)cc12` [Example 149, 5-(4-methyl-1H-indole-2-carbonyl)-41H,5H,6H,7H-[1,3]thiazolo[5,4-c]pyridin-2-amine] are 1 to 10 µM and under 5 µM.
On the same counts, the results for `O=C(c1cc2c(Br)cccc2[nH]1)N1CCc2nc(NCC3(O)CCC3)sc2C1` [Example 364, 1-({[5-(4-bromo-1H-indole-2-carbonyl)-4H,5H,6H,7H-[1,3]thiazolo[5,4-c]pyridin-2-yl]amino}methyl)cyclobutan-1-ol] are under 1 µM and under 5 µM.
In the case of `CC(O)c1cc(F)cc2[nH]c(C(=O)N3CCc4nc(NCC5(O)CCC5)sc4C3)cc12` (stereo not shown) [Example 366, 1-[({5-[6-fluoro-4-(1-hydroxyethyl)-1H-indole-2-carbonyl]-4H,5H,6H,7H-[1,3]thiazolo[5,4-c]pyridin-2-yl}amino)methyl]cyclobutan-1-ol], the 50% effective concentration (EC50) in the test on HBV was under 1 µM. For the same compound, on HBV core protein, the 50% inhibitory concentration (IC50) was under 100 µM.
The matching figures for `O=C(c1cc2ccccc2[nH]1)N1CCc2nc(N[C@H]3CC[C@@H](O)CC3)sc2C1` [Example 45, (1s,4s)-4-{[5-(1H-indole-2-carbonyl)-4H,5H,6H,7H-[1,3]thiazolo[5,4-c]pyridin-2-yl]amino}cyclohexan-1-ol]: under 1 µM and under 5 µM.
The matching figures for `COC1(CNc2nc3c(s2)CN(C(=O)c2cc4ccccc4[nH]2)CC3)CCOC1` (stereo not shown) [Example 246, 5-(1H-indole-2-carbonyl)-N-[(3-methoxyoxolan-3-yl)methyl]-4H,5H,6H,7H-[1,3]thiazolo[5,4-c]pyridin-2-amine]: under 1 µM and under 5 µM.
For the compound `CC(F)(F)c1cccc2[nH]c(C(=O)N3CCc4nc(NC(=O)C5CCOCC5)sc4C3)cc12` [Example 399, N-{5-[4-(1,1-difluoroethyl)-1H-indole-2-carbonyl]-4H,5H,6H,7H-[1,3]thiazolo[5,4-c]pyridin-2-yl}oxane-4-carboxamide], the half-maximal effective concentration (EC50) in the test with HBV was in the range of 1 to 10 µM. The IC50 on HBV core protein is under 5 µM.
Consider `Cc1nc2c(s1)CN(C(=O)c1cc3c(Cl)c(Cl)ccc3[nH]1)CC2` [Example 185, 4,5-dichloro-2-{2-methyl-4H,5H,6H,7H-[1,3]thiazolo[5,4-c]pyridine-5-carbonyl}-1H-indole], for which the EC50 in the test on HBV is under 100 µM. The IC50 at HBV core protein was under 100 µM.
For `CNC(=O)Nc1nc2c(s1)CN(C(=O)c1cc3c(Cl)cc(F)cc3[nH]1)CC2` [Example 266, 1-[5-(4-chloro-6-fluoro-1H-indole-2-carbonyl)-4H,5H,6H,7H-[1,3]thiazolo[5,4-c]pyridin-2-yl]-3-methylurea], in the test with HBV, the concentration for a half-maximal effect (EC50) is under 1 µM. Moreover, the concentration for half-maximal inhibition (IC50) at HBV core protein is under 5 µM.
On the same counts, the results for `O=C(c1cc2ccccc2[nH]1)N1CCc2nc(NCC3(CO)CCOCC3)sc2C1` [Example 237, [4-({[5-(1H-indole-2-carbonyl)-4H,5H,6H,7H-[1,3]thiazolo[5,4-c]pyridin-2-yl]amino}methyl)oxan-4-yl]methanol] are under 1 µM and under 5 µM.
On the same counts, the results for `Nc1nc2c(s1)CN(C(=O)c1cc3ccc(C(F)(F)F)cc3[nH]1)CC2` [Example 199, 5-[6-(trifluoromethyl)-1H-indole-2-carbonyl]-4H,5H,6H,7H-[1,3]thiazolo[5,4-c]pyridin-2-amine] are under 1 µM and under 5 µM.
On the same counts, the results for `O=C(Nc1nc2c(s1)CN(C(=O)c1cc3ccc(Cl)cc3[nH]1)CC2)C1CCOCC1` [Example 318, N-[5-(6-chloro-1H-indole-2-carbonyl)-4H,5H,6H,7H-[1,3]thiazolo[5,4-c]pyridin-2-yl]oxane-4-carboxamide] are under 1 µM and under 5 µM.
`CC(F)(F)c1cccc2[nH]c(C(=O)N3CCc4nc(NCC5(O)CCC5)sc4C3)cc12` [Example 372, 1-[({5-[4-(1,1-difluoroethyl)-1H-indole-2-carbonyl]-4H,5H,6H,7H-[1,3]thiazolo[5,4-c]pyridin-2-yl}amino)methyl]cyclobutan-1-ol]: the half-maximal effective concentration (EC50) in the test with HBV was in the range of 1 to 10 µM. In addition, at HBV core protein, the half-maximal inhibitory concentration (IC50) was under 5 µM.
As to `CC(C)(CO)CNc1nc2c(s1)CN(C(=O)c1cc3ccccc3[nH]1)CC2` [Example 221, 3-{[5-(1H-indole-2-carbonyl)-4H,5H,6H,7H-[1,3]thiazolo[5,4-c]pyridin-2-yl]amino}-2,2-dimethylpropan-1-ol], the EC50 with HBV is under 1 µM. The half-maximal inhibitory concentration (IC50) on HBV core protein was under 5 µM.
Take `Nc1nc2c(s1)CN(C(=O)c1cc3ccc(Cl)c(F)c3[nH]1)CC2` [Example 407, 5-(6-chloro-7-fluoro-1H-indole-2-carbonyl)-4H,5H,6H,7H-[1,3]thiazolo[5,4-c]pyridin-2-amine]: the 50% effective concentration (EC50) with HBV was under 1 µM. On HBV core protein, the half-maximal inhibitory concentration (IC50) was under 5 µM.
On the same counts, the results for `CC(=O)N1CCOCC1CNc1nc2c(s1)CN(C(=O)c1cc3ccccc3[nH]1)CC2` (stereo not shown) [Example 232, 1-[3-({[5-(1H-indole-2-carbonyl)-4H,5H,6H,7H-[1,3]thiazolo[5,4-c]pyridin-2-yl]amino}methyl)morpholin-4-yl]ethan-1-one] are under 1 µM and 5 to 10 µM.
Regarding `O=C(c1cc2c(F)c(F)ccc2[nH]1)N1CCc2nc(NCC3CCOC3)sc2C1` (stereo not shown) [Example 112, 5-(4,5-difluoro-1H-indole-2-carbonyl)-N-[(oxolan-3-yl)methyl]-4H,5H,6H,7H-[1,3]thiazolo[5,4-c]pyridin-2-amine], the EC50 in the test on HBV was under 1 µM. The half-maximal inhibitory concentration (IC50) on HBV core protein was under 5 µM.
